Measurements: US6242440A, “Synergistic compositions comprising an oxathiazine and a benzothiophene-2-carboxamide-S,S-dioxide” (Janssen Pharmaceutica N.V., priority 1997, dated 2001)

How the values were obtained:
[1] = tested on: Aureobasidium; assay: wood stick test (Scots Pine); assay type: cell-based, Aureobasidium pullulans; settings: read-out: measured (relative) activity %
Method: (§1) Oven-dried wood sticks (50×12×2 mm) of Scots Pine (Pinus sylvestris) were dipped during 3 hours in a methanol solution comprising a compound of formula (I), a compound of formula (II), or a combination of a compound of formula (I) and a compound of formula (II), and allowed to dry overnight in a sterile laminar air flow. In each Petri dish one stick was placed on culture medium, PDA PS (Potato Dextrose Agar containing 60 mg penicillin and 200 mg streptomycin), previously seeded with inoculum. Two drops of fungal or spore suspension were pipetted on the upper surface of the stick The Petri dishes were incubated at 22° C. and 70% relative humidity. The test was evaluated after sufficient growth of the fungus on the control sticks. The following score system was used:
(§2) 0: sticks free of fungal growth
(§3) 1: traces of growth on the stick
(§4) 2: slight growth (5 to 25% of the surface covered)
(§5) 3 : moderate growth (25 to 50% of the surface covered)
(§6) 4: vigorous to maximum growth (more tha 50% covered)
(§7) To calculate synergism results were converted to the next artificial activities:
(§8) Yhe expected activities E were calculated by using the so-called formula of Colby: (Colby, S. R. Weeds 1967, 15: 20-22), [formula]
(§9) wherein X and Y express the relative activities obtained for each of the active ingredients. A synergistic effect can be acknowledged if the found activity exceeds calculated activity.
(§10) The compound of formula (I) used in the experiment was 3-benzo[b]-thien-2-yl)-5,6-dihydro-1,4,2-oxathiazine 4-oxide, i.e. compound (1). The compound of formula (II) used in the experiment was N-cyclohexyl-benzothiophene-2-carboxamide-S,S-dioxide, i.e. compound (2).

[2] = tested on: Aspergillus; assay: wood stick test (Scots Pine); assay type: cell-based, Aspergillus niger
Method: as §1, §2, §3, §4, §5, §6, §7, §8, §9, §10

[3] = tested on: Trichoderma viride; assay: poison plate assay, mycelial growth and sporulation; assay type: cell-based
Method: (§11) The efficacy of the active ingredients against mycelial growth and sporulation of Aureobasidium pullulans, Aspergillus niger, Scierophoma entoxylina, Trichodenna viride, was determined in the poison plate assay. The required concentrations of the fungicide(s) were obtained by diluting the active ingredients (I), (II) or the combination of (I) and (II) in dimethyl sulfoxide (DMSO) at 800 times the final test concentration. The stock solutions in DMSO were pipetted into Petri-dishes. Malt extract agar (3%) was added aseptically and uniform distribution was obtained by shaking. Each plate was spot inoculated with a spore or mycelial suspension. After incubation at 22° C. and 70% relative humidity for a period long enough to allow complete growth of controls, diameters of colonies were measured. Relative activities were calculated by taking the absence of fungal growth (diameter 0 mm) as 100%. From the activity of the active ingredients alone, the expected activities E were calculated by using the so-called formula of Colby: (Colby, S. R. Weeds 1967, 15: 20-22), [formula]
as §9
(§12) Equal efficacy was observed whenever complete inhibition of fungal growth occurred by one of the active ingredients (I) or (II) alone. The compound of formula (I) used in the experiment was 3-benzo[b]-thien-2-yl)-5,6-dihydro-1,4,2-oxathiazine 4-oxide, i.e. compound (1). The compound of formula (II) used in the experiment was N-cyclohexyl-benzothiophene-2-carboxamide-S,S-dioxide, i.e. compound (2).

[4] = tested on: Aspergillus niger; assay: as above; assay type: cell-based
Method: as §11, §9, §12

[5] = tested on: Aureobasidium pullulans; assay: as above; assay type: cell-based
Method: as §11, §9, §12

[6] = tested on: Sclerophoma entoxylina; assay: as above; assay type: cell-based
Method: as §11, §9, §12

[7] = tested on: Sclerophoma; assay: wood stick test (Scots Pine); assay type: cell-based, Sclerophoma entoxylina
Method: as §1, §2, §3, §4, §5, §6, §7, §8, §9, §10

With `O=C(NC1CCCCC1)C1=Cc2ccccc2S1(=O)=O` [compound (2), N-cyclohexyl-benzothiophene-2-carboxamide-S,S-dioxide] the activity at 200 ppm ([1]; (2) 200 ppm) was 0%, the activity at 400 ppm ([1]; (2) 400 ppm) was 75% and the activity at 800 ppm ([1]; (2) 800 ppm) was 95%. For the same compound, the “% overgrown of the sticks” value ([2]; (2) 200 ppm) was 100%, the stick test scores ([2]; (2) 200 ppm) was 4 (vigorous to maximum growth (more tha 50% covered)) and the “% overgrown of the sticks” value ([2]; (2) 400 ppm) was 100%. For the same compound, the stick test scores ([2]; (2) 400 ppm) was 4 (vigorous to maximum growth (more tha 50% covered)), the “% overgrown of the sticks” value ([2]; (2) 800 ppm) was 100% and the stick test scores ([2]; (2) 800 ppm) was 4 (vigorous to maximum growth (more tha 50% covered)). It also gave an activity at 200 ppm ([2]; Aspergillus, (2) 200 ppm, read-out: measured (relative) activity %) of 0%, an activity at 400 ppm ([2]; Aspergillus, (2) 400 ppm, read-out: measured (relative) activity %) of 0% and an activity at 800 ppm ([2]; Aspergillus, (2) 800 ppm, read-out: measured (relative) activity %) of 0%. For the same compound, the activity measured ([3]; Exp 1, 5 days, (2) 2.5 mg/l) was 0%, the growth ([3]; Exp 1, 5 days, (2) 2.5 mg/l) was 49 mm and the activity measured ([3]; Exp 1, 5 days, (2) 5 mg/l) was 0%. The growth ([3]; Exp 1, 5 days, (2) 5 mg/l) was 49 mm, the activity measured ([3]; Exp 1, 5 days, (2) 10 mg/l) was 0% and the growth ([3]; Exp 1, 5 days, (2) 10 mg/l) was 49 mm. For the same compound, the activity measured ([3]; Exp 1, 5 days, (2) 20 mg/l) was 14%, the growth ([3]; Exp 1, 5 days, (2) 20 mg/l) was 42 mm and the activity measured ([3]; Exp 2, 7 days, (2) 2.5 mg/l) was 0%. For the same compound, the growth ([3]; Exp 2, 7 days, (2) 2.5 mg/l) was 49 mm, the activity measured ([3]; Exp 2, 7 days, (2) 5 mg/l) was 0% and the growth ([3]; Exp 2, 7 days, (2) 5 mg/l) was 49 mm. For the same compound, the activity measured ([3]; Exp 2, 7 days, (2) 10 mg/l) was 8%, the growth ([3]; Exp 2, 7 days, (2) 10 mg/l) was 45 mm and the activity measured ([3]; Exp 2, 7 days, (2) 20 mg/l) was 24%. The growth ([3]; Exp 2, 7 days, (2) 20 mg/l) was 37 mm, the activity measured ([4]; Exp 1, 5 days, (2) 2.5 mg/l) was 0% and the growth ([4]; Exp 1, 5 days, (2) 2.5 mg/l) was 44 mm. It also gave an activity measured ([4]; Exp 1, 5 days, (2) 5 mg/l) of 5%, a growth ([4]; Exp 1, 5 days, (2) 5 mg/l) of 42 mm and an activity measured ([4]; Exp 1, 5 days, (2) 10 mg/l) of 23%. For the same compound, the growth ([4]; Exp 1, 5 days, (2) 10 mg/l) was 34 mm, the activity measured ([4]; Exp 1, 5 days, (2) 20 mg/l) was 70% and the growth ([4]; Exp 1, 5 days, (2) 20 mg/l) was 13 mm. For the same compound, the activity measured ([4]; Exp 2, 7 days, (2) 2.5 mg/l) was 2%, the growth ([4]; Exp 2, 7 days, (2) 2.5 mg/l) was 44 mm and the activity measured ([4]; Exp 2, 7 days, (2) 5 mg/l) was 2%. For the same compound, the growth ([4]; Exp 2, 7 days, (2) 5 mg/l) was 44 mm, the activity measured ([4]; Exp 2, 7 days, (2) 10 mg/l) was 9% and the growth ([4]; Exp 2, 7 days, (2) 10 mg/l) was 41 mm. The activity measured ([4]; Exp 2, 7 days, (2) 20 mg/l) was 36%, the growth ([4]; Exp 2, 7 days, (2) 20 mg/l) was 29 mm and the activity measured ([5]; Exp 1, 5 days, (2) 2.5 mg/l) was 8%. The growth ([5]; Exp 1, 5 days, (2) 2.5 mg/l) was 35 mm, the activity measured ([5]; Exp 1, 5 days, (2) 5 mg/l) was 16% and the growth ([5]; Exp 1, 5 days, (2) 5 mg/l) was 32 mm. It also gave an activity measured ([5]; Exp 1, 5 days, (2) 10 mg/l) of 37%, a growth ([5]; Exp 1, 5 days, (2) 10 mg/l) of 24 mm and an activity measured ([5]; Exp 1, 5 days, (2) 20 mg/l) of 53%. For the same compound, the growth ([5]; Exp 1, 5 days, (2) 20 mg/l) was 18 mm, the activity measured ([5]; Exp 2, 7 days, (2) 2.5 mg/l) was 2% and the growth ([5]; Exp 2, 7 days, (2) 2.5 mg/l) was 47 mm. The activity measured ([5]; Exp 2, 7 days, (2) 5 mg/l) was 6%, the growth ([5]; Exp 2, 7 days, (2) 5 mg/l) was 45 mm and the activity measured ([5]; Exp 2, 7 days, (2) 10 mg/l) was 8%. The growth ([5]; Exp 2, 7 days, (2) 10 mg/l) was 44 mm, the activity measured ([5]; Exp 2, 7 days, (2) 20 mg/l) was 23% and the growth ([5]; Exp 2, 7 days, (2) 20 mg/l) was 37 mm. For the same compound, the activity measured ([6]; Exp 1, 5 days, (2) 2.5 mg/l) was 7%, the growth ([6]; Exp 1, 5 days, (2) 2.5 mg/l) was 40 mm and the activity measured ([6]; Exp 1, 5 days, (2) 5 mg/l) was 16%. It also gave a growth ([6]; Exp 1, 5 days, (2) 5 mg/l) of 36 mm, an activity measured ([6]; Exp 1, 5 days, (2) 10 mg/l) of 19% and a growth ([6]; Exp 1, 5 days, (2) 10 mg/l) of 35 mm. It also gave an activity measured ([6]; Exp 1, 5 days, (2) 20 mg/l) of 40%, a growth ([6]; Exp 1, 5 days, (2) 20 mg/l) of 26 mm and an activity measured ([6]; Exp 2, 7 days, (2) 2.5 mg/l) of 2%. For the same compound, the growth ([6]; Exp 2, 7 days, (2) 2.5 mg/l) was 48 mm, the activity measured ([6]; Exp 2, 7 days, (2) 5 mg/l) was 4% and the growth ([6]; Exp 2, 7 days, (2) 5 mg/l) was 47 mm. For the same compound, the activity measured ([6]; Exp 2, 7 days, (2) 10 mg/l) was 16%, the growth ([6]; Exp 2, 7 days, (2) 10 mg/l) was 41 mm and the activity measured ([6]; Exp 2, 7 days, (2) 20 mg/l) was 29%. The growth ([6]; Exp 2, 7 days, (2) 20 mg/l) was 35 mm, the “% overgrown of the sticks” value ([7]; (2) 200 ppm) was 100% and the stick test scores ([7]; (2) 200 ppm) was 4 (vigorous to maximum growth (more tha 50% covered)). For the same compound, the “% overgrown of the sticks” value ([7]; (2) 400 ppm) was 100%, the stick test scores ([7]; (2) 400 ppm) was 4 (vigorous to maximum growth (more tha 50% covered)) and the “% overgrown of the sticks” value ([7]; (2) 800 ppm) was 25%. The stick test scores ([7]; (2) 800 ppm) was 2 (slight growth (5 to 25% of the surface covered)), the activity at 200 ppm ([7]; Sclerophoma entoxylina, (2) 200 ppm, read-out: measured (relative) activity %) was 0% and the activity at 400 ppm ([7]; Sclerophoma entoxylina, (2) 400 ppm, read-out: measured (relative) activity %) was 0%. For the same compound, the activity at 800 ppm ([7]; Sclerophoma entoxylina, (2) 800 ppm, read-out: measured (relative) activity %) was 75%.
